Experimental data from patent US20080200403A1, “9A-Carbamoyl and Thiocarbamoyl Azalides with Anti-Inflammatory Activity” (GLAXOSMITHKLINE, priority 2005, published 2008).
Where two headings read alike, the source gives them in different places.

Experiments:
human granulocytes = assay: Oxidative burst inhibition assay on granulocytes (luminol); format: cell-based; details: Homo sapiens; for inhibition at 12.5 µM: compound 12.5 μM; for inhibition at 50 µM: compound 50 μM
Procedure: (§1) Granulocytes were obtained from heparinized whole blood using density gradient centrifugation. Erythrocytes were sedimented on 3% dextran T-500 (Amersham Pharmacia Biotech AB, Uppsala, Sweden). Leukocytes were centrifuged on Ficoll (Amersham Pharmacia Biotech AB, Uppsala, Sweden) for 35 min at 600 g at 20° C. The pellet of granulocytes was cleared from remaining erythrocytes by a brief hypotonic lysis.
The effect of compounds on oxidative burst was investigated in vitro with oxidative burst assay in human granulocytes, isolated as described above. Assay was done in 96 well plate. Blood was obtained from healthy volunteers (Transfusion Center, Croatia) and human granulocytes were isolated by dextran sedimentation and ficoll extraction method, as described above. In each well 50000 isolated granulocytes were suspended in 100 μL of DMEM. Final concentrations of the tested compounds were 50 and 12.5 μM. Than, 50 μL of luminol (c=0.25 mg/mL) was added. Luminol as a detector of oxidative burst react with superoxide and light is produced as one of the reaction products. Subsequently, 50 μL of stimuli, phorbol-12-myristate acetate (PMA) (c=33 ng/mL) or Zymosan (c=120 μg/mL), were added.

TNF-α = assay: Lipopolysaccharide induced TNF-α production in Balb/cJ mice; format: in vivo; details: LPS stimulated Balb/cJ mice, 10 mg/kg b.w. intraperitoneally, plasma 90 min after challenge
Procedure: Male Balb/cJ mice (Iffa Credo, France), 18 animals weighing 25-33 g were randomly grouped (7 animals were treated with the test compounds, 7 were in positive control and 4 in negative control). Substances, as well as vehiculum [0.125% carboxymethyl-cellulose (Sigma, USA)], were administered intraperitoneally. Substances were administered in the dose of 10 mg/kg b.w. Administered volume was 10 mL/kg b.w. Thirty minutes later, lipopolysaccharide (LPS) (Sigma, USA) solution in sterile saline at concentration and volume of 25 μg/0.2 mL of sterile saline/mouse was intraperitoneally administered to each animal except those in negative control. Ninety minutes after the challenge all animals were bled to death by puncturing a carotis communis. Plasma concentration of TNF-α was determined by sandwich ELISA, using capture and detection antibodies (R&D, USA) according to manufacturer's recommendations. Results are presented in the following table as % of inhibition of TNF-α production in comparison to positive control (challenged but not treated animals).

Hep G2 = assay: MTT cytotoxicity assay on Hep G2 cell line; format: cell-based
Procedure: To determine whether the anti-inflammatory activity of the test compounds was due to observed inhibition of cytokine production and inhibition of proliferation in vitro, and was not a consequence of cellular cytotoxicity, measurement of succinate dehydrogenase activity in living cells was performed. Cells were cultured for 24 h in RPMI medium as described above at 37° C. in the presence of the test compounds at concentrations of 50 μM and 12.5 μM. MTT [3-(4,5-dimethylthiazole-2-yl)-2,5-diphenyl tetrazolium bromide] (Promega, USA), a detection reagent, was then added and the cultures were incubated for 0.5-2 h. The amount of MTT-Formazan produced was determined using a spectrophotometer at 490 nm (Mosmann, J. Imnunol. Methods, 1983, 65: 55-63). Percentage of viable cells was calculated using the following formula:
% viable cells=([…]OD490 treated cells/OD490 nontreated cells)×100

IL-2 = assay: Inhibition of IL-2 production by stimulated human PBMC in vitro; format: cell-based; details: PHA stimulated, 3 days
Procedure: (§2) Heparinized peripheral blood was obtained from healthy donors, and peripheral blood mononuclear cells (PBMC) were isolated by Histopaque 1077 (Sigma, USA) density centrifugation on 400 g for 30 minutes. Collected PBMC were centrifuged in plasma on 400 g/10 min, resuspended and washed in RPMI 1640 (Institute of Immunology, Croatia) by centrifugation.
(§3) Peripheral blood mononuclear cells (PBMC), isolated as described above, were seeded in a 48-well plate at a concentration of 1×10^6 cells per well in the RPMI culture medium described above. Cells were stimulated with 10 μg/mL phytohaemagglutinin (PHA) (Sigma, USA) and incubated at 37° C., 5% CO2 in 90% humidity with tested compounds (10 and 50 μM) for 3 days. Cytokine concentrations were determined in supernatants by sandwich ELISA, using capture and detection antibodies (R&D, USA) according to the manufacturer's recommendations.
(§4) Inhibition (as percentage) was calculated using the following formula: % inhibition=(1−concentration of cytokines in sample/concentration of cytokines in positive control)×100. The positive control refers to stimulated samples, not treated with substances.

granulocytes = assay: Inhibition of degranulation of granulocytes (elastase release); format: cell-based, human; details: for inhibition at 50 µM: Homo sapiens, read-out: Percentage of inhibition of degranulation of granulocytes
Procedure: as §1
1×10^6 granulocytes, isolated as described above, were resuspended in RPMI-1640 medium (Institute of Immunology, Croatia), and were incubated with 10 or 50 μM of test compound together with cytochalasine B (5 μg/mL) for 2 h at 37° C. Degranulation then was induced by the addition of 0.1 μM fMLP (Sigma, USA) or 0.5 μM A23187 (Calbiochem, USA). The activity of free neutrophil elastase was determined with a chromogenic substrate specific for human neutrophil elastase, such as n-methoxysuccinyl-1-alanyl-1-alanyl-1-prolyl-lvalyl-p-niytoanlide (Sigma Chemical Company, St Louis, Mo., USA) Elastase activity, as a marker of primary granules, was assessed in supernatant using a spectrophotometer at an absorbance of 405 nm. Results are expressed as the percent of inhibition of degranulation in unstimulated cells, and in stimulated cells treated with fMLP or A23187.

IL-5 = assay: Inhibition of IL-5 production by stimulated human PBMC in vitro; format: cell-based; details: PHA stimulated, 3 days
Procedure: as §2, §3, §4

[1] = PMA stimulated granulocytes, read-out: % inhibition of Oxidative burst PMA
[2] = Zymosan stimulated granulocytes, read-out: % inhibition of Oxidative burst Zymosan
[3] = A23187 0.5 μM stimulated, compound 10 μM
[4] = A23187 0.5 μM stimulated, compound 50 μM
[5] = fMLP 0.1 μM stimulated, compound 10 μM
[6] = fMLP 0.1 μM stimulated, compound 50 μM

Row | SMILES | inhibition at 12.5 µM (human granulocytes; [1]) [%] | inhibition at 50 µM (human granulocytes; [1]) [%] | inhibition at 12.5 µM (human granulocytes; [2]) [%] | inhibition at 50 µM (human granulocytes; [2]) [%] | TNF-α (% inhibition) (TNF-α) [%] | Percentage of inhibition of IL-2 production (IL-2; compound 10 μM) [%] | Percentage of inhibition of IL-2 production (IL-2; compound 50 μM) [%] | Percentage of inhibition of degranulation of granulocytes (granulocytes; [3]) [%] | Percentage of inhibition of degranulation of granulocytes (granulocytes; [4]) [%] | Percentage of inhibition of degranulation of granulocytes (granulocytes; [5]) [%] | Percentage of inhibition of degranulation of granulocytes (granulocytes; [6]) [%] | Percentage of inhibition of IL-5 production (IL-5; compound 10 μM) [%] | Percentage of inhibition of IL-5 production (IL-5; compound 50 μM) [%] | Percentage of viable cells after treatment (Hep G2; human, 24 h, 12.5 μM) [%] | Percentage of viable cells after treatment (Hep G2; human, 24 h, 50 μM) [%] | other results
1 | CC[C@H]1OC(=O)[C@H](C)[C@@H](O[C@H]2C[C@@](C)(OC)[C@@H](O)[C@H](C)O2)[C@H](C)[C@@H](O[C@@H]2O[C@H](C)C[C@H](N(C)C)[C@H]2O)[C@](C)(O)C[C@@H](C)CN(C(=S)Nc2cccc(C(F)(F)F)c2)[C@H](C)[C@@H](O)[C@]1(C)O [Compound 4] | 16 | 85 | 0 | 100 |  |  |  |  |  |  |  |  |  |  |  | 
2 | CCC1OC(=O)C(C)C(OC2CC(C)(OC)C(O)C(C)O2)C(C)C(OC2OC(C)CC(N(C)C)C2O)C(C)(O)CC(C)CN(C(=S)Nc2cccc(F)c2)C(C)C(O)C1(C)O (centres unmarked) [Compound 3] |  |  |  |  | 29 | 86 | 98 | 2 | 75 | 25 | 33 | 80 | 78 |  |  | Percentage of viable cells after treatment (Hep G2; Hep G2, 24 h, compound 12.5 μM): 100%; Percentage of viable cells after treatment (Hep G2; Hep G2, 24 h, compound 50 μM): >85%
3 | CCC1OC(=O)C(C)C(O)C(C)C(OC2OC(C)CC(N(C)C)C2O)C(C)(O)CC(C)CN(C(=S)NCc2ccccc2)C(C)C(O)C1(C)O (centres unmarked) [Compound 1] |  |  |  |  | 31 | 61 | 95 | 20 | 27 | 37 | 72 | 14 | 73 |  |  | 
4 | CC[C@H]1OC(=O)[C@H](C)[C@@H](O[C@H]2C[C@@](C)(OC)[C@@H](O)[C@H](C)O2)[C@H](C)[C@@H](O[C@@H]2O[C@H](C)C[C@H](N(C)C)[C@H]2O)[C@](C)(O)C[C@@H](C)CN(C(=S)Nc2ccccc2F)[C@H](C)[C@@H](O)[C@]1(C)O [Compound 5] |  |  |  |  | 50 |  |  |  |  |  |  |  |  | 100 | 100 | 
5 | CC[C@H]1OC(=O)[C@H](C)[C@@H](O[C@H]2C[C@@](C)(OC)[C@@H](O)[C@H](C)O2)[C@H](C)[C@@H](O[C@@H]2O[C@H](C)C[C@H](N(C)C)[C@H]2O)[C@](C)(OC)C[C@@H](C)C(=O)[C@H](C)[C@@H](O)[C@]1(C)O [Clarithromycin, clarithromycin, reference compound] | 0 | 3 | 4 | 19 | 63 |  |  |  |  |  |  |  |  | 100 | 100 | inhibition at 10 µM (IL-2; Homo sapiens, 72 h, compound 10 μM, read-out: Percentage of inhibition of IL-2 production): 0%; inhibition at 50 µM (IL-2; Homo sapiens, 72 h, compound 50 μM, read-out: Percentage of inhibition of IL-2 production): 3%; inhibition at 10 µM (IL-5; Homo sapiens, 72 h, compound 10 μM, read-out: Percentage of inhibition of IL-5 production): 13%; inhibition at 50 µM (IL-5; Homo sapiens, 72 h, compound 50 μM, read-out: Percentage of inhibition of IL-5 production): 47%
6 | CC[C@H]1OC(=O)[C@H](C)[C@@H](O[C@H]2C[C@@](C)(OC)[C@@H](O)[C@H](C)O2)[C@H](C)[C@@H](O[C@@H]2O[C@H](C)C[C@H](N(C)C)[C@H]2O)[C@](C)(O)C[C@@H](C)CN(C)[C@H](C)[C@@H](O)[C@]1(C)O [Azithromycin, azithromycin, reference compound] | 0 | 20 | 0 | 16 | 54 |  |  |  |  |  |  |  |  | 100 | >95 | inhibition at 50 µM (granulocytes; [4]): 16%; inhibition at 50 µM (granulocytes; [6]): 36%
